Laboratory results from PMC6849653, “Volasertib preclinical activity in high-risk hepatoblastoma” (Oncotarget, 2019).
Where a name gives a salt, the structure may show the parent alone.

Legend:
normal human hepatocytes = assay: 60-agent chemical screen, cell viability (Cell-Titer Glo), hepatocytes; format: cell-based; conditions: Hepatocyte, 60-agent screen, 72 hours, a value of 10,000 indicates that the drug did not inhibit viability, read-out: absolute IC50, Hepatocytes;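 also: cells were plated onto pre-diluted drug concentrations in 384-well plates, and viability was read after 72 h as CellTiter-Glo 2.0 luminescence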
Protocol: (§1) On day 0, cells were trypsinized and plated into a white walled 384-well plate containing pre-diluted known concentrations of various drugs. After 72 hours, an equal volume of Cell-Titer Glo 2.0 (G9243, Promega) was added to each well, incubated at room temperature while rocking in the dark for 15 minutes, followed by luminescence acquisition with a BioTek Synergy HT plate reader (BioTek, Winooski, VT).

HepG2 = assay: 60-agent chemical screen, cell viability (Cell-Titer Glo), HepG2; format: cell-based; conditions: Homo sapiens, 60-agent screen, 72 hours, a value of 10,000 indicates that the drug did not inhibit viability, read-out: absolute IC50, HepG2;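 also: luminescence read-out in 384-well plates, with cells plated directly onto drug dilutions of known concentration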
Protocol: as §1

Huh-6 = assay: 60-agent chemical screen, cell viability (Cell-Titer Glo), Huh-6; format: cell-based; conditions: Homo sapiens, 60-agent screen, 72 hours, a value of 10,000 indicates that the drug did not inhibit viability, read-out: absolute IC50, Huh-6
Protocol: as §1

HB-214 = assay: 60-agent chemical screen, cell viability (Cell-Titer Glo), HB-214; format: cell-based; conditions: Homo sapiens; 60-agent screen, 72 hours; a value of 10,000 indicates that the drug did not inhibit viability; read-out: absolute IC50, HB-214;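 also: viability read as luminescence once Cell-Titer Glo 2.0 reagent was added to drug-treated cells in 384-well plates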
Protocol: as §1

[1] = system: hepatoblastoma cell lines HepG2, Huh-6 and HB-214 versus hepatocytes
Protocol: as §1

[2] = cited from earlier work

IC50 (HepG2) [µM]	IC50 (Huh-6) [µM]	Ratio normal/cancer: average ratio of the IC50 in hepatocytes to the IC50 in hepatoblastoma cell lines [1]	Compound	IC50 (normal human hepatocytes) [µM]	IC50 (HB-214) [µM]	known toxicity ([2]; in vivo)	side effects ([2]; irinotecan)
5.4	5.27	–	COc1cccc(OCCCN)c1-c1cc(Nc2cnc(C#N)cn2)n[nH]1 [LY2606368]	> 10	4.7	–	–
> 10	> 10	–	CC1(C)CCC(c2ccc(Cl)cc2)=C(CN2CCN(c3ccc(C(=O)NS(=O)(=O)c4ccc(N[C@H](CCN5CCOCC5)CSc5ccccc5)c(S(=O)(=O)C(F)(F)F)c4)cc3)CC2)C1 [ABT-263]	> 10	> 10	–	–
0.126	2.43	–	CC(C)n1nc(-c2ccc3oc(N)nc3c2)c2c(N)ncnc21 [INK 128]	0.007	0.001	–	–
6.39	1.56	–	CC(C)N(CCCNC(=O)Nc1ccc(C(C)(C)C)cc1)C[C@H]1O[C@@H](n2cc(Br)c3c(N)ncnc32)[C@H](O)[C@@H]1O [SGC0946]	0.51	> 10	–	–
> 10	> 10	–	N#CC[C@H](C1CCCC1)n1cc(-c2ncnc3[nH]ccc23)cn1 [ruxolitinib]	> 10	> 10	–	–
> 10	> 10	–	C[C@@H](Oc1ccc2[nH]nc(/C=C/c3cnn(CCO)c3)c2c1)c1c(Cl)cncc1Cl [LY2874455]	2.17	> 10	–	–
> 10	> 10	–	CN1CCc2c(c3ccccc3n2Cc2ccc(C(=O)NO)cc2)C1 [tubastatin A]	> 10	> 10	–	–
0.124	4.47	–	COCCn1c2c([n+](Cc3cnccn3)c1C)C(=O)c1ccccc1C2=O [YM155]	0.034	0.26	–	–
> 10	> 10	–	CC(C)(C(=O)NCC(F)(F)C(F)(F)F)C(=O)N[C@@H]1C(=O)Nc2ccccc2-c2ccccc21 [RO4929097]	> 10	> 10	–	–
> 10	> 10	–	CCCc1c(OCCCOc2cc(O)c(-c3ccc(F)cc3)cc2CC)cccc1Oc1ccccc1C(=O)O [LY293111]	> 10	> 10	–	–
–	–	1	CS(=O)(=O)c1cccc(CNc2nc(Nc3ccc4c(c3)CCC(=O)N4)ncc2C(F)(F)F)c1 [PF 573228]	–	–	–	–
–	–	4	Clc1ccc(N/N=C(\c2ccccc2)c2ccccn2)nc1 [JIB-04]	–	–	–	–
0.08	1.14	–	Cc1[nH]c2ccccc2c1CCNCc1ccc(/C=C/C(=O)NO)cc1 [panobinostat]	0.039	0.25	–	–
> 10	> 10	–	CN[C@@H](C)C(=O)N[C@H](C(=O)N1CCC[C@H]1c1nc(C(=O)c2ccc(F)cc2)cs1)C1CCCCC1 [LCL161]	> 10	> 10	–	–
1.72	4.62	–	CN1CCC(CNc2ccc3ncc(-c4cccc(OC(F)(F)F)c4)n3n2)CC1 [SGI-1776]	0.233	1.53	–	–
2.9	2.81	–	COc1cc2nc(N3CCCN(C)CC3)nc(NC3CCN(Cc4ccccc4)CC3)c2cc1OC [BIX 01294]	2.04	1.72	–	–
> 10	> 10	–	Cc1cc(-c2ncc(CC(=O)Nc3ccc(-c4cnccn4)cn3)cc2C)ccn1 [LGK974]	7.72	> 10	–	–
> 10	> 10	–	Cc1ccc(-c2cc(C(F)(F)F)nn2-c2ccc(S(N)(=O)=O)cc2)cc1 [celecoxib]	> 10	> 10	–	–
> 10	> 10	–	CO[C@H]1C[C@@H]2CC[C@@H](C)[C@@](O)(O2)C(=O)C(=O)N2CCCC[C@H]2C(=O)O[C@H]([C@H](C)C[C@@H]2CC[C@@H](O)[C@H](OC)C2)CC(=O)[C@H](C)/C=C(\C)[C@@H](O)[C@@H](OC)C(=O)[C@H](C)C[C@H](C)/C=C/C=C/C=C/1C [sirolimus]	> 10	> 10	–	–
> 10	4.44	–	CC(C)n1c(/C=C/C(O)CC(O)CC(=O)O)c(-c2ccc(F)cc2)c2ccccc21 (stereo not drawn) [fluvastatin]	–	> 10	–	–
> 10	> 10	–	CN(C)C(=N)N=C(N)N [metformin HCL]	> 10	> 10	–	–
5.02	2.62	–	Cc1nc(Nc2ncc(C(=O)Nc3c(C)cccc3Cl)s2)cc(N2CCN(CCO)CC2)n1 [dasatinib]	> 10	> 10	–	–
2.17	4.42	–	C[C@@H](Oc1cc(-c2cnn(C3CCNCC3)c2)cnc1N)c1c(Cl)ccc(F)c1Cl [crizotinib]	2.16	7.64	–	–

IC50 (HepG2) [µM]	IC50 (Huh-6) [µM]	Ratio normal/cancer: average ratio of the IC50 in hepatocytes to the IC50 in hepatoblastoma cell lines [1]	Compound	IC50 (normal human hepatocytes) [µM]	IC50 (HB-214) [µM]	known toxicity ([2]; in vivo)	side effects ([2]; irinotecan)
> 10	> 10	–	Cc1ccc(Nc2nccc(N(C)c3ccc4c(C)n(C)nc4c3)n2)cc1S(N)(=O)=O [pazopanib]	–	> 10	–	–
0.392	> 10	–	Nc1ccccc1NC(=O)c1ccc(CNC(=O)OCc2cccnc2)cc1 [entinostat]	0.217	1.49	–	–
–	–	–	CCc1cnn2c(NCc3ccc[n+]([O-])c3)cc(N3CCCC[C@H]3CCO)nc12 [dinaciclib]	0.001	–	–	–
> 10	> 10	–	Nc1nc(O)c2ncn(COC(CO)CO)c2n1 [ganciclovir]	> 10	> 10	–	–
> 10	> 10	–	O=C1NC(=O)C(c2cnc3ccccn23)=C1c1cn2c3c(cc(F)cc13)CN(C(=O)N1CCCCC1)CC2 [LY2090314]	0.837	> 10	–	–
> 10	> 10	–	COc1ccc(C[C@@H](C)[C@@H](C)Cc2ccc(OC)c(OC)c2)cc1OC [EM1421]	> 10	> 10	–	–
> 10	4.8	–	CCOC(=O)CCNc1cc(N2CCc3ccccc3CC2)nc(-c2ccccn2)n1 [GSK-J4 HCl]	> 10	> 10	–	–
> 10	> 10	–	C=C[C@@]1(C)CC(=O)[C@]2(O)[C@@]3(C)[C@@H](O)CCC(C)(C)[C@@H]3[C@H](O)[C@H](OC(C)=O)[C@@]2(C)O1 [forskolin]	> 10	> 10	–	–
> 10	> 10	–	O=c1ncccn1[C@@H]1O[C@H](CO)[C@@H](O)[C@H]1O [zebularine]	> 10	> 10	–	–
> 10	> 10	–	CN(C(=O)c1ccc(F)cc1C(F)(F)F)C1CCN(c2nnc(-c3ccnn3C)c3ccccc23)CC1 [LY2940680]	> 10	> 10	–	–
> 10	> 10	–	CCOc1cc(C(C)(C)C)ccc1C1=N[C@@](C)(c2ccc(Cl)cc2)[C@@](C)(c2ccc(Cl)cc2)N1C(=O)N1CCN(CCCS(C)(=O)=O)CC1 [RO5045337]	> 10	4.15	–	–
> 10	> 10	–	C[C@]1(O)C[C@@H](c2nc(-c3ccc4ccc(-c5ccccc5)nc4c3)c3c(N)nccn32)C1 [OSI-906]	5.9	1.8	–	–
6.07	> 10	–	CC(=O)c1c(C)c2cnc(Nc3ccc(N4CCNCC4)cn3)nc2n(C2CCCC2)c1=O [PD 0332991]	> 10	1.89	–	–
> 10	> 10	–	C=CCn1c(=O)c2cnc(Nc3ccc(N4CCN(C)CC4)cc3)nc2n1-c1cccc(C(C)(C)O)n1 [MK-1775]	> 10	1.18	–	–
> 10	3.26	–	Cc1cc(Nc2cc(N3CCN(C)CC3)nc(Sc3ccc(NC(=O)C4CC4)cc3)n2)[nH]n1 [tozasertib]	> 10	1.48	–	–
0.478	> 10	–	Cn1c(=O)n(-c2ccc(C(C)(C)C#N)cc2)c2c3cc(-c4cnc5ccccc5c4)ccc3ncc21 [BEZ235]	0.048	0.61	–	–
–	–	1	Cc1ccc(S(=O)(=O)/C=C/C#N)cc1 [BAY-11-7082]	–	–	–	–
6.2	4.81	–	O=C(O)c1ccc2c(c1)nc(Nc1cccc(Cl)c1)c1ccncc12 [CX-4945]	> 10	> 10	–	–
> 10	> 10	–	Nc1nc2[nH]cc(CCc3ccc(C(=O)N[C@@H](CCC(=O)O)C(=O)O)cc3)c2c(=O)[nH]1 [pemetrexed]	> 10	> 10	–	–
–	–	–	CCc1c2c(nc3ccc(OC(=O)N4CCC(N5CCCCC5)CC4)cc13)-c1cc3c(c(=O)n1C2)COC(=O)[C@]3(O)CC [irinotecan]	–	–	–	diarrhea and neutropenia
> 10	> 10	–	CC(C)(C)Cn1c(N)nc2ccc(-c3[nH]c(C(C)(C)C)nc3-c3ccc(F)cc3)nc21 [LY2228820]	0.076	> 10	–	–
> 10	> 10	–	CNC(=O)CN1CCC(Oc2cc3c(Nc4cccc(Cl)c4F)ncnc3cc2OC)CC1 [AZD8931]	1.45	> 10	–	–

Compound	IC50 (HepG2) [µM]	IC50 (Huh-6) [µM]	Ratio normal/cancer: average ratio of the IC50 in hepatocytes to the IC50 in hepatoblastoma cell lines [1]	IC50 (normal human hepatocytes) [µM]	IC50 (HB-214) [µM]	known toxicity ([2]; in vivo)	side effects ([2]; irinotecan)
C/C=C(/C)C(=O)O[C@H]1C(C)=C2[C@H]([C@@H]1OC(=O)CCCCCCC)[C@@](C)(OC(C)=O)C[C@H](OC(=O)CCC)[C@@]1(O)[C@H]2OC(=O)[C@@]1(C)O [thapsigargin]	0.021	0.28	–	0.519	0.16	significant renal toxicity	–
